The values below are quoted from earlier work in patent US9956241B2, “Application of American Ginseng to enhance neurocognitive function” (priority 2009, dated 2018).

In data set [1] the test system is choline acetyltransferase. The settings on record: rodent brains.
For data set [2], the system named is LTP in the hippocampal formation. The settings on record: in vivo; rats.
Data set [3] relates to choline acetyltransferase and nerve growth factor messenger RNA. The settings on record: rat brains.
Another data set has as its system plasma corticosterone. The following applies: rodents.
The subject of data set [4] is brain serotonin concentrations. The settings on record: in vivo.
In data set [5] the test system is central cholinergic nerve endings.
Data set [6] deals with synaptosomal uptake of norepinephrine, dopamine, serotonin and GABA.
Data set [7] relates to human neuronal nicotinic acetylcholine receptors.

Structures are written as SMILES.

In the case of `CC(C)=CCC[C@](C)(O[C@@H]1O[C@H](CO[C@@H]2O[C@H](CO)[C@@H](O)[C@H](O)[C@H]2O)[C@@H](O)[C@H](O)[C@H]1O)[C@H]1CC[C@]2(C)[C@@H]1[C@H](O)C[C@@H]1[C@@]3(C)CC[C@H](O[C@@H]4O[C@H](CO)[C@@H](O)[C@H](O)[C@H]4O[C@@H]4O[C@H](CO)[C@@H](O)[C@H](O)[C@H]4O)C(C)(C)[C@@H]3CC[C@]12C` [Rb1, ginsenoside Rb1], the choline acetyltransferase levels result in [1] was “increase choline acetyltransferase levels”. Also, the “LTP in the hippocampal formation” value in data set [2] is reported as “modulation of LTP”. Also, the “expression of choline acetyltransferase and nerve growth factor messenger RNA” value in [3] is on record as “increased expression”. In addition, the “stress-induced increases in plasma corticosterone” value in the data set with plasma corticosterone is “inhibit”. For the same compound, the brain serotonin concentrations result in data set [4] is given as “marked alterations”. Besides, in data set [5] (hippocampus, to a lesser extent cortex), the “acetylcholine release and reuptake, number of choline uptake sites” value is reported as “modulation”. Also, in data set [5] (isolated Rb1), the acetylcholine release entry is reported as “stimulate acetylcholine release” and the synaptosomal choline uptake entry was “increase synaptosomal choline uptake”.
Regarding `CC(C)=CCC[C@](C)(O[C@@H]1O[C@H](CO)[C@@H](O)[C@H](O)[C@H]1O)[C@H]1CC[C@]2(C)[C@@H]1[C@H](O)C[C@@H]1[C@@]3(C)CC[C@H](O[C@@H]4O[C@H](CO)[C@@H](O)[C@H](O)[C@H]4O[C@@H]4O[C@H](CO)[C@@H](O)[C@H](O)[C@H]4O)C(C)(C)[C@@H]3CC[C@]12C` [Rd, ginsenoside Rd], the corticosterone secretion result in the data set on corticosterone secretion is reported as “affect corticosterone secretion”. In data set [6], the “synaptosomal uptake of norepinephrine, dopamine, serotonin and GABA” value was “may inhibit”.
On to `CC(C)=CCC[C@](C)(O[C@@H]1O[C@H](CO)[C@@H](O)[C@H](O)[C@H]1O)[C@H]1CC[C@]2(C)[C@@H]1[C@H](O)C[C@@H]1[C@@]3(C)CC[C@H](O)C(C)(C)[C@@H]3[C@@H](O[C@@H]3O[C@H](CO)[C@@H](O)[C@H](O)[C@H]3O[C@@H]3O[C@@H](C)[C@H](O)[C@@H](O)[C@H]3O)C[C@]12C` [Re, ginsenoside Re], for which the “synaptosomal uptake of norepinephrine, dopamine, serotonin and GABA” value in data set [6] was “may inhibit”.
Consider `CC(C)=CCC[C@](C)(O[C@@H]1O[C@H](CO)[C@@H](O)[C@H](O)[C@H]1O)[C@H]1CC[C@]2(C)[C@@H]1[C@H](O)C[C@@H]1[C@@]3(C)CC[C@H](O)C(C)(C)[C@@H]3[C@@H](O[C@@H]3O[C@H](CO)[C@@H](O)[C@H](O)[C@H]3O)C[C@]12C` [Rg1, ginsenoside Rg1], for which, in data set [1], the choline acetyltransferase levels entry is “increase choline acetyltransferase levels”. The brain serotonin concentrations result in [4] is listed as “marked alterations”.
In the case of `CC(C)=CCC[C@](C)(O)[C@H]1CC[C@]2(C)[C@@H]1[C@H](O)C[C@@H]1[C@@]3(C)CC[C@H](O)C(C)(C)[C@@H]3[C@@H](O[C@@H]3O[C@H](CO)[C@@H](O)[C@H](O)[C@H]3O[C@@H]3O[C@@H](C)[C@H](O)[C@@H](O)[C@H]3O)C[C@]12C` [Rg2, ginsenoside Rg2], the “interaction with nicotinic receptor subtypes” value in data set [7] is listed as “direct interaction”.
